In ChEMBL document CHEMBL5126505, “Adenosine receptor antagonists: Recent advances and therapeutic perspective” (Eur J Med Chem, 2022):
Values after ≈ are worked out from the molar mass of the structure shown. Blank lines part the entries; values can stand above or below the compound they belong to.

Legend:
[1] = biological target: T1, Adenosine receptor A2a (Homo sapiens, UniProt P29274); experiment: Binding affinity to human adenosine A2A receptor measured by radioligand-based affinity assay
[2] = biological target: T2, Adenosine receptor A3 (Homo sapiens, UniProt P0DMS8); experiment: biochemical
T2 sequence (P0DMS8 whole entry): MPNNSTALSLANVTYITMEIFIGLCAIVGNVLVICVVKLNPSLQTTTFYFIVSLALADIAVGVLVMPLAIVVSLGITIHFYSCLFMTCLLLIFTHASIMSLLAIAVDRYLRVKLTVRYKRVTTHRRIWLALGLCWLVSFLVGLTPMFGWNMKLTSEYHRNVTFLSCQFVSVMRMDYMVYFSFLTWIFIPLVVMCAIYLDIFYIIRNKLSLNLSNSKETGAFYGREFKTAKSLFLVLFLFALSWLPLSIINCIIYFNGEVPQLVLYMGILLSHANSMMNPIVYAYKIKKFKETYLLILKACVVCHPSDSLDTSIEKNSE
Description: Displacement of [3H]HEMADO from human adenosine A3 receptor expressed in CHO cells measured by radioligand competition assay

[3] = biological target: T1, Adenosine receptor A2a
[4] = biological target: T2, Adenosine receptor A3
Description: Binding affinity to human adenosine A3A receptor

[5] = biological target: T2, Adenosine receptor A3; remark: listed apart in the source
Description: Binding affinity to human adenosine A3A receptor measured by radioligand-based affinity assay

[6] = biological target: T1, Adenosine receptor A2a; remark: listed apart in the source
[7] = biological target: T3, Adenosine receptor A1 (Homo sapiens, UniProt P30542)
T3 sequence (P30542 whole entry): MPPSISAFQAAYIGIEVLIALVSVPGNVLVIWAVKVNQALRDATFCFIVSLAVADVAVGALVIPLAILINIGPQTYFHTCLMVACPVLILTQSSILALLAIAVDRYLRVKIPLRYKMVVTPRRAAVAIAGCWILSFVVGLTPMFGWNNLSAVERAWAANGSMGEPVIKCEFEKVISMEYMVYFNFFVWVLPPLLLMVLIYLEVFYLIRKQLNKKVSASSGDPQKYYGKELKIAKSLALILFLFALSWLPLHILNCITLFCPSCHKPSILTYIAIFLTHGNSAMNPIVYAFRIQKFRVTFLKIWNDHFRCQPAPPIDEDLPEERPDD
Description: Binding affinity to human adenosine A1 receptor

[8] = in vivo; conditions: plasma
Description: Cmax in plasma (unknown origin)

[9] = biological target: T1, Adenosine receptor A2a; remark: listed apart in the source
Description: Antagonist activity at human adenosine A2A receptor expressed in CHO cells assessed as inhibition of NECA-induced cAMP production measured by scintillation counter assay

[10] = biological target: T3, Adenosine receptor A1; remark: listed apart in the source
Description: Binding affinity to human adenosine A1A receptor measured by radioligand-based affinity assay

[11] = physchem; conditions: phosphate buffered saline
Description: Solubility of the compound in phosphate buffered saline

[12] = physchem; conditions: simulated intestinal fluid
Description: Solubility of the compound in simulated intestinal fluid

[13] = physchem; conditions: simulated gastric fluid
Description: Solubility of the compound in simulated gastric fluid

[14] = physchem; conditions: water
Description: Solubility of the compound in water

[15] = biological target: T1, Adenosine receptor A2a; remark: listed apart in the source
Description: Antagonist activity at adenosine A2A receptor (unknown origin)

[16] = biological target: T1, Adenosine receptor A2a; experiment: Antagonist activity at human adenosine A2A receptor expressed in CHO cells assessed as inhibition of NECA-induced cAMP production; type: functional, cell-based
[17] = biological target: T3, Adenosine receptor A1; remark: listed apart in the source
Description: Antagonist activity at human adenosine A1A receptor

[18] = biological target: T4, Adenosine receptor A2b (Homo sapiens, UniProt P29275)
T4 sequence (P29275 whole entry): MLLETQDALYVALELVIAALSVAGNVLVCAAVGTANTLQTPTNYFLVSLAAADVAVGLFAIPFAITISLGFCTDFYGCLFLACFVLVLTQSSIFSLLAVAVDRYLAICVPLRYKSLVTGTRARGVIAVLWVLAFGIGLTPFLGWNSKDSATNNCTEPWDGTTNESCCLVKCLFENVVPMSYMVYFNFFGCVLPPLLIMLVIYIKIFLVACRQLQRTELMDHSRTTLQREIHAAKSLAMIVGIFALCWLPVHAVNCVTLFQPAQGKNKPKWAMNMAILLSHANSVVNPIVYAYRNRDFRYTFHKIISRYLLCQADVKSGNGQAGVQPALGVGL
Description: Binding affinity to human adenosine A2B receptor

T1 sequence (P29274 whole entry): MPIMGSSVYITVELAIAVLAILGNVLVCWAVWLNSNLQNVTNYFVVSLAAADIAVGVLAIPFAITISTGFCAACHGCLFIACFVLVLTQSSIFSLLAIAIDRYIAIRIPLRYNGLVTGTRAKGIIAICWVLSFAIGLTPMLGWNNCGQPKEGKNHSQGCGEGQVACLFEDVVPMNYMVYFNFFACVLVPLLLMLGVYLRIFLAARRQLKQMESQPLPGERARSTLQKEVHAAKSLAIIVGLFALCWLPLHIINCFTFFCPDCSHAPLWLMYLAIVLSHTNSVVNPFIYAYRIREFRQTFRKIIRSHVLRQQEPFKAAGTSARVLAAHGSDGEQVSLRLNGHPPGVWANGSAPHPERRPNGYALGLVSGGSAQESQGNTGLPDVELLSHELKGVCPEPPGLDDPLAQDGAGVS

Ki [2]: 5320 nM
Compound: COc1ccc(-c2cc3cccc(OC)c3oc2=O)cc1

Ki [2]: 3930 nM
Compound: CCOc1cccc2cc(-c3ccccc3)c(=O)oc12

Ki [2]: 258 nM
Compound: CCOc1cccc2cc(-c3ccc(OC)cc3)c(=O)oc12

Ki [2]: 2680 nM
Compound: Cc1ccc(-c2cc3cc(C)ccc3oc2=O)cc1

Ki [4]: 7 nM
Compound: COc1ccc(OC)c(-c2cc(NC(C)=O)nc(-c3cc(OC)ccc3OC)n2)c1

Ki [4]: 7 nM
Compound: COc1ccc(-c2cc(NC(C)=O)nc(-c3ccc(OC)c(OC)c3)n2)cc1OC

Ki [5]: 24 nM
Compound: Cc1nc(NC(=O)c2ccccc2)c2nn(-c3ccccc3)cc2n1

Ki [6]: 2.9 nM
Compound: COc1ccccc1Cc1cc2c(N)nc(-c3ccc(C)o3)nc2s1

Ki [6]: 3.7 nM
Compound: Cc1ccc(-c2nc(N)c3cc(Cc4ccccc4Cl)sc3n2)o1

Ki [7]: 11.1 nM
Ki [6]: 298 nM
Cmax [8]: 5 µM
Compound: Cc1ccc(-c2nc(N)c3cc(Cc4ccccc4)sc3n2)o1

Ki [2]: 2200 nM
Compound: CCOC(=O)c1c(NC(=O)c2sc(Nc3ccc(C)cc3)nc2-c2ccc(C)cc2)sc2c1CCCC2

Ki [2]: 5200 nM
Compound: CCOC(=O)c1c(NC(=O)c2sc(Nc3ccc(OC)cc3)nc2-c2ccc(C)cc2)sc2c1CCCC2

Ki [7]: 6.34 nM
Ki [6]: 9.54 nM
Compound: Cc1ccc(-c2cc(-c3cccc(C(=O)N4CCCCC4)c3)nc(N)n2)o1

Ki [10]: 3540 nM
Ki [1]: 1950 nM
Compound: Nc1nc(-c2ccccc2)cc(-c2cccc(OC(=O)N3CCOCC3)c2)n1

Ki [3]: 7.7 nM
Compound: Oc1ccc(-c2cnc(N[C@H]3CC[C@H](O)CC3)nc2-c2ccccc2)cc1Cl

IC50 [16]: > 30000 nM
Compound: CCOc1ccc(-c2cn3c(=O)n(-c4ccccc4)nc3c(N)n2)cc1

Ki [7]: 41000 nM
Ki [4]: 22000 nM
Compound: COc1ccc2oc(=O)c(C(=O)Nc3cccc(O)c3)cc2c1

Ki [4]: 2400 nM
Compound: Cc1cccc(NC(=O)c2cc3ccccc3oc2=O)c1

IC50 [10]: 1480 nM
Compound: O=c1[nH]c(N2CCCC2)nc2nccc(-c3ccc(Cl)cc3)c12

Ki [18]: 29.1 nM
Compound: CC1=C(C(=O)OC(C)C(F)(F)F)C(c2ccco2)n2c(nc3ccccc32)N1 (centres undefined)

Second part, the compound before the results:

Compound: S=c1sc2c(ncn3nc(-c4ccco4)nc23)n1CCc1ccccc1
Ki [1]: 6.3 nM

Compound: CCN1CCCC(Nc2cc(C)nc(NC(=N)Nc3ccc(Cl)c(Cl)c3)n2)C1 (centres undefined)
IC50 [3]: 546 nM

Compound: CC(C)n1cc2c(Cl)nc(N(C(=O)c3ccccc3)C(=O)c3ccccc3)nc2n1
Ki [5]: 900 nM

Compound: Nc1nc(CCCc2ccccc2)nc2cn(-c3ccccc3)nc12
Ki [9]: 423 nM

Compound: CCn1c(=O)c2c(nc(CCCc3ccccc3)n2CC)n(CC)c1=O
Ki [7]: 164 nM

Compound: CCn1c(=O)c2c(nc(COc3ccccc3)n2C)n(CC)c1=O
Ki [7]: 874 nM

Compound: Nc1nc(-c2ccccc2)cc(-c2cccc(OC(=O)N3CCCCC3)c2)n1
Ki [10]: 3540 nM
Ki [1]: 1950 nM

Compound: CN1CCN(C(=O)Oc2cccc(-c3cc(-c4ccccc4)nc(N)n3)c2)CC1
Ki [10]: 3540 nM
Ki [1]: 1950 nM

Compound: OC[C@@H]1CCCN1c1ncnc2sc(Nc3cccc(Br)c3)nc12
solubility [11]: 4800 µg/mL (≈ 11.8 mM)
solubility [12]: 3500 µg/mL (≈ 8.61 mM)
solubility [13]: 3500 µg/mL (≈ 8.61 mM)
solubility [14]: 4300 µg/mL (≈ 10.6 mM)

Compound: CCn1c(=O)c2c(nc(COc3ccc(Br)cc3)n2C)n(CC)c1=O
Ki [7]: 264 nM

Compound: CCn1c(=O)c2c(nc(COc3ccc(OC)cc3)n2C)n(CC)c1=O
Ki [6]: 237 nM

Compound: CCCn1c(=O)[nH]c2nc(-c3cnn(Cc4cccc(C(F)(F)F)c4)c3)[nH]c2c1=O
Ki [15]: 6 nM

Compound: CCCn1c(Oc2cccc(C(F)(F)F)c2)nc2nc(C3CCCC3)[nH]c2c1=O
Ki [17]: 2 nM

Compound: CCCn1c(OC2CCOC2)nc2nc(C3CCCC3)[nH]c2c1=O (centres undefined)
Ki [7]: 57 nM
